Test results as given in the supplement of paper PMC10307832.

How the values were obtained:
Assay in all cases: relative viability (nuclei count vs DMSO), 5 days (fraction); higher = more cells survive
RAF265 + Navitoclax = compound: Cn1c(Nc2ccc(C(F)(F)F)cc2)nc2cc(Oc3ccnc(-c4ncc(C(F)(F)F)[nH]4)c3)ccc21 [RAF265] + CC1(C)CCC(c2ccc(Cl)cc2)=C(CN2CCN(c3ccc(C(=O)NS(=O)(=O)c4ccc(N[C@H](CCN5CCOCC5)CSc5ccccc5)c(S(=O)(=O)C(F)(F)F)c4)cc3)CC2)C1 [Navitoclax] (partner 0.5 µM)
Outline: (§1)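 Nuclei were stained with Hoechst during a one-step fixation (final 0.05% Triton X-100, 1% formaldehyde, 1 ug/ml Hoechst) carried out 5 days after dosing, then counted on 4× images. The cells, lung cancer lines in 1536-well plates, had been dosed by pin tool the day after seeding with one drug alone or a fixed anchor-drug dose plus five library-drug doses (not always all listed) in √10 steps. Relative viability is the nuclei count in treated wells divided by that in vehicle wells, and each value is the median of duplicate plates.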

RAF265 + AZD7762 = compound: Cn1c(Nc2ccc(C(F)(F)F)cc2)nc2cc(Oc3ccnc(-c4ncc(C(F)(F)F)[nH]4)c3)ccc21 [RAF265] + NC(=O)Nc1cc(-c2cccc(F)c2)sc1C(=O)N[C@H]1CCCNC1 [AZD7762] (partner 0.2 µM)
Outline: as §1

Doramapimod + Tozasertib = compound: Cc1ccc(-n2nc(C(C)(C)C)cc2NC(=O)Nc2ccc(OCCN3CCOCC3)c3ccccc23)cc1 [Doramapimod] + Cc1cc(Nc2cc(N3CCN(C)CC3)nc(Sc3ccc(NC(=O)C4CC4)cc3)n2)n[nH]1 [Tozasertib] (partner 0.1 µM)
Outline: as §1

IPA-3 + Palbociclib = compound: C1=CC=C2C(=C1)C=CC(=C2SSC3=C(C=CC4=CC=CC=C43)O)O [IPA-3] + CC(=O)c1c(C)c2cnc(Nc3ccc(N4CCNCC4)cn3)nc2n(C2CCCC2)c1=O [Palbociclib] (partner 0.5 µM)
Outline: as §1

Cell Line	relative viability (RAF265 + Navitoclax; first compound 0.01 µM)	relative viability (RAF265 + Navitoclax; first compound 0.03162 µM)	relative viability (RAF265 + Navitoclax; first compound 0.1 µM)	relative viability (RAF265 + Navitoclax; first compound 0.3162 µM)	relative viability (RAF265 + Navitoclax; first compound 1 µM)	relative viability (RAF265 + AZD7762; first compound 0.01 µM)	relative viability (RAF265 + AZD7762; first compound 0.03162 µM)	relative viability (RAF265 + AZD7762; first compound 0.1 µM)	relative viability (RAF265 + AZD7762; first compound 0.3162 µM)	relative viability (RAF265 + AZD7762; first compound 1 µM)	relative viability (Doramapimod + Tozasertib; first compound 0.02 µM)	relative viability (Doramapimod + Tozasertib; first compound 0.06325 µM)	relative viability (Doramapimod + Tozasertib; first compound 0.2 µM)	relative viability (Doramapimod + Tozasertib; first compound 0.6325 µM)	relative viability (Doramapimod + Tozasertib; first compound 2 µM)	relative viability (IPA-3 + Palbociclib; first compound 0.2 µM)	relative viability (IPA-3 + Palbociclib; first compound 0.6325 µM)	relative viability (IPA-3 + Palbociclib; first compound 2 µM)	relative viability (IPA-3 + Palbociclib; first compound 6.325 µM)	relative viability (IPA-3 + Palbociclib; first compound 20 µM)
A549	1.31	1.19	1.06	0.669	0.624	–	–	–	–	–	–	–	–	–	–	–	–	–	–	–
ABC-1	–	–	–	–	–	0.993	0.771	0.798	1.06	0.47	0.235	0.228	0.183	0.189	0.123	0.733	0.81	0.392	0.748	0.851
COR-L23	0.976	0.957	0.918	0.512	0.514	–	–	–	–	–	0.268	0.22	0.173	0.178	0.176	0.283	0.301	0.316	0.266	0.118
COR-L 105	0.853	0.878	0.668	0.685	0.339	–	–	–	–	–	0.409	0.342	0.376	0.35	0.365	0.409	0.275	0.405	0.393	0.399
Calu-6	0.753	0.588	0.569	0.304	0.221	–	–	–	–	–	–	–	–	–	–	–	–	–	–	–
EBC-1	0.398	0.366	0.332	0.283	0.312	–	–	–	–	–	–	–	–	–	–	–	–	–	–	–
IA-LM	0.73	–	0.663	0.597	0.609	–	–	–	–	–	–	–	–	–	–	–	–	–	–	–
LCLC-103H	–	–	–	–	–	0.815	0.911	0.767	0.727	0.598	0.431	0.529	0.388	0.544	0.432	0.496	0.498	0.485	0.438	0.492
NCI-H358	–	–	–	–	–	0.46	0.515	0.491	0.279	0.184	0.0934	0.0925	0.101	0.105	0.109	0.141	0.117	0.153	0.14	0.157
NCI-H520	1.04	0.888	1.07	0.848	0.706	–	–	–	–	–	0.483	0.441	0.402	0.42	0.382	0.229	0.206	–	0.283	0.186
NCI-H522	–	–	–	–	–	0.801	0.872	0.887	0.985	0.897	0.501	0.489	0.579	0.59	0.471	1.16	1.14	0.893	1.18	1.31
NCI-H650	–	–	–	–	–	0.969	0.966	0.996	0.551	0.748	0.757	0.823	0.804	0.798	0.654	0.373	0.361	0.323	0.361	0.426
